Test results as given in ChEMBL document CHEMBL1201862, “PubChem BioAssay data set” (2004).
Values belong to the compound of their own block, whether it stands above or below them. Activity calls are given as the source filed them.

Assays:
[1] = NIH-3T3 fibroblast cytotoxicity, dose response, cytotoxicity control, cell-based, fluorescence, Alamar Blue, secondary assay (AID 2327); type: functional;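 also: NIH-3T3 mouse fibroblasts cultured with fluconazole at 8 µg/mL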
[2] = test system: BJ; test: BJ-TERT fibroblast viability loss – cell-based, RAS-independent, luminescence, dose response (AID 1933); type: functional; details: Homo sapiens
[3] = test system: BJ; test: cells; type: functional, cell-based; details: Homo sapiens
[4] = test system: BJ; test: BJ-TERT-LT-ST fibroblast viability loss – cell-based, RAS-independent, luminescence, dose response (AID 1935); type: functional; details: Homo sapiens;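 also: BJ fibroblasts immortalized with TERT plus LT and ST oncogenes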
[5] = DRD fibroblast viability loss – cell-based, non-viral oncogenic, luminescence, dose response (AID 1934); type: functional; details: Homo sapiens
[6] = target: T1, Calpain-2 catalytic subunit (Sus scrofa, UniProt P43367); test: m-calpain protease blockers, concentration series – biochemical, fluorogenic peptide substrate, dose response (AID 1420); type: functional
T1 sequence (P43367 whole entry): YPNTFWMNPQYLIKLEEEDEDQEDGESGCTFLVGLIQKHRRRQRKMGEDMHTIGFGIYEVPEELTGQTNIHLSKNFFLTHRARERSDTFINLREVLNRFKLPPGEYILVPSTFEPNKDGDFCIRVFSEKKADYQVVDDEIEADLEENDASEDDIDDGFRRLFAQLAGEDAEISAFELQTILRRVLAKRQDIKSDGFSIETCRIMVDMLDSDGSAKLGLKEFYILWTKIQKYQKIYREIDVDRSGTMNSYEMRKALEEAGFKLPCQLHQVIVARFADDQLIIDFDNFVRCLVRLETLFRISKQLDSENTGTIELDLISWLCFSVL

[7] = target: T2, High affinity choline transporter 1 (Homo sapiens, UniProt Q9GZV3); test: human choline transporter blockers, potency – cell-based, 5-point CRC, membrane potential dye, dose response (AID 504840); type: functional
T2 sequence (Q9GZV3 whole entry): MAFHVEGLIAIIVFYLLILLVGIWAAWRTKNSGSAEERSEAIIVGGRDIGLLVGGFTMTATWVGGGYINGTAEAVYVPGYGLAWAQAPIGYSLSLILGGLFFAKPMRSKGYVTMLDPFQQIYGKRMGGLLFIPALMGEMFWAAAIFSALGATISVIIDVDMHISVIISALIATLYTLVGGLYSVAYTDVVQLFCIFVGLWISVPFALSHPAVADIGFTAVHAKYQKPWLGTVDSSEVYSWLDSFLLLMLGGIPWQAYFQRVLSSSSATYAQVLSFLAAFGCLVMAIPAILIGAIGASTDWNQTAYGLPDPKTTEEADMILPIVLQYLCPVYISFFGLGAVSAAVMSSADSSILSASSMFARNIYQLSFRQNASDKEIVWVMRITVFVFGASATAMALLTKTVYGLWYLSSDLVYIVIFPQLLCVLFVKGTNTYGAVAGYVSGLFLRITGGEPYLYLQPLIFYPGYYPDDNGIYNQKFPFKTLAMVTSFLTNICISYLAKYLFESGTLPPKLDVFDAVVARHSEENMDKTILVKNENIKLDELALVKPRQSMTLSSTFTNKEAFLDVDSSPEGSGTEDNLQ

[8] = target: FAD-linked sulfhydryl oxidase ALR (Homo sapiens, UniProt P55789); test: ALR-catalysed DTT oxidation blockers – biochemical, H2O2 detection, luminescence, cherry-pick, dose response (AID 493248)
Sequence of FAD-linked sulfhydryl oxidase ALR (P55789 whole entry): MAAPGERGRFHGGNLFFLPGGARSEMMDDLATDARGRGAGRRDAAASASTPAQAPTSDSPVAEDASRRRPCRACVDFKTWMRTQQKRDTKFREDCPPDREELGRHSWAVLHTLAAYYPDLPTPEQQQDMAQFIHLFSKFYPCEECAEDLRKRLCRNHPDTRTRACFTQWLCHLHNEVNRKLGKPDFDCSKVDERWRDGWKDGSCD

[9] = fluconazole-exposed Candida albicans growth modulators – fluorescence, retest, confirmation (AID 2467); type: functional, cell-based
[10] = target: T3, Rac GTPase-activating protein 1 (Homo sapiens, UniProt Q9H0H5); test: blockers of MgcRacGAP-driven Rac1 GTP hydrolysis – biochemical, ADP Hunter fluorescence, primary and confirmatory, confirmation (AID 624330); type: functional
T3 sequence (Q9H0H5 whole entry): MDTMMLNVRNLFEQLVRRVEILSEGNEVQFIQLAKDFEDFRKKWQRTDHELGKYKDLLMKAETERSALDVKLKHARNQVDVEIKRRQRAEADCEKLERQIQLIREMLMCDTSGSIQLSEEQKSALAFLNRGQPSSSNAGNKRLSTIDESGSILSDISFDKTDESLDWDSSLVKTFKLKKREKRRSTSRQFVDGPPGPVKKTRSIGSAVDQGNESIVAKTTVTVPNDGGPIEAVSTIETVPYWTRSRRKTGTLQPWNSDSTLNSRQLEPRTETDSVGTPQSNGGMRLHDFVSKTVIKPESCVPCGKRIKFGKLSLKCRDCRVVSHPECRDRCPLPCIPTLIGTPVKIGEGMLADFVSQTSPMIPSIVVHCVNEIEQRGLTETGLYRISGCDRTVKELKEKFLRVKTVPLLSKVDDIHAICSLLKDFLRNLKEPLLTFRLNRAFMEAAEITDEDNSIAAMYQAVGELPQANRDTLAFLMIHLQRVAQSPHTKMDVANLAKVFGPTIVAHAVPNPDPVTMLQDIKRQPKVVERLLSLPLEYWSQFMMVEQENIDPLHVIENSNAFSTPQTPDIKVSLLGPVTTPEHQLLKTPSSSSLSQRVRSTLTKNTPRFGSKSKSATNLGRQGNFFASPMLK

[11] = target: Paired box protein Pax-8 (Homo sapiens, UniProt Q06710); test: PAX8 transcriptional activity inhibition in RMG-I – RMG-I cells, luciferase, cherry-pick, dose response (AID 687027); type: functional, cell-based;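 also: luciferase reporter driven by Pax8 target thyroperoxidase promoter measured by SteadyGlo luminescence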
Sequence of Paired box protein Pax-8 (Q06710 whole entry): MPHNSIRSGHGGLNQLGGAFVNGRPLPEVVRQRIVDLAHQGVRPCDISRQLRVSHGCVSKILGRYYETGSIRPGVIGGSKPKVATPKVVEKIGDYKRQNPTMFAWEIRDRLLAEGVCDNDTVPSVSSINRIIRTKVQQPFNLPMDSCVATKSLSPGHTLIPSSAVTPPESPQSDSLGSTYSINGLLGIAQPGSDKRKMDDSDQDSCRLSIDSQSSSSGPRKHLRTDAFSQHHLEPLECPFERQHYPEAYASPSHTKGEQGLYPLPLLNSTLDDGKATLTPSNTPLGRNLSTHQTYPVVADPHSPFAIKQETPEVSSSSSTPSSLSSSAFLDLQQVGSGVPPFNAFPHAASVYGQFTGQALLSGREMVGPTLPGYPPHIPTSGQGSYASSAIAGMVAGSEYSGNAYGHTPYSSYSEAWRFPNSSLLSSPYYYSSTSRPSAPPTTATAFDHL

SMILES: Cc1ccc(C)c(OC(=O)c2cncc(Br)c2)c1
EC50 [1]: > 160 µM (inactive)

SMILES: Cc1cc(NC(=O)CSc2nc(-c3ccco3)cc(C(F)(F)F)n2)n(-c2ccccc2)n1
EC50 [2]: 17.6 µM (inconclusive) | EC50 [3]: 64.5 µM (inconclusive) | EC50 [4]: > 75 µM (not active) | EC50 [5]: 14.9 µM (active)

SMILES: CCN1C/C(=C/c2ccc(N3CCOCC3)cc2)C(=O)/C(=C/c2ccc(N3CCOCC3)cc2)C1
EC50 [2]: 7.89 µM (active) | EC50 [3]: 11 µM (inconclusive) | EC50 [4]: 5.64 µM (active) | EC50 [5]: 5.96 µM (active)

SMILES: C=CC[C@@H]1C=C(C)C[C@H](C)C[C@H](OC)[C@H]2O[C@@](O)(C(=O)C(=O)N3CCCC[C@H]3C(=O)O[C@H](/C(C)=C/[C@@H]3CC[C@@H](O)[C@H](OC)C3)[C@H](C)[C@@H](O)CC1=O)[C@H](C)C[C@@H]2OC
EC50 [1]: > 160 µM (inactive) | EC50 [9]: 0.035 µM (active)

SMILES: CCN1CCn2c3c(c4cc(Cl)ccc42)CCCC31 (centres undefined)
IC50 [7]: 3.31 µM (active)

SMILES: CCC(NC(=O)CCc1nnc(-c2cc(C)on2)o1)C12CC3CC(CC(C3)C1)C2 (centres undefined)
IC50 [7]: 14.5 µM (active)

SMILES: CCCCn1c(S)nnc1-c1csc2c1CCC(C)C2 (centres undefined)
IC50 [6]: 18.2 µM (not active)

SMILES: COc1ccc(S(=O)(=O)Nc2ccc3c(c2)C(=O)N([C@H](C)CO)C[C@@H](C)[C@H](CN(C)C(=O)Nc2ccc(C(F)(F)F)cc2)OCCCC[C@H](C)O3)cc1
AC50 [11]: 7.32 µM (active)

SMILES: Cc1ccc(NCc2nnc3n2CCCCC3)c(C)c1
AC50 [8]: 1.35 µM (active)

SMILES: CCCNC(=O)c1c(CSc2ccccc2)noc1C(=O)NCc1ccccc1
IC50 [6]: 3.24 µM (not active)

Further lines, results first:

IC50 [6]: < 0.4 µM (not active)
SMILES: O=C(O/N=C1\CCS(=O)(=O)c2sccc21)c1ccc(F)cc1

IC50 [7]: 16.2 µM (active)
SMILES: O=C(NNc1cc(Cl)cc(Cl)c1)c1cccs1

AC50 [8]: 4.37 µM (active)
SMILES: ClCc1csc(-c2ccc(Cl)cc2)n1

AC50 [8]: 1.75 µM (active)
SMILES: O=C(O)c1cccc(S(=O)(=O)Nc2ccc(N3CCCCC3)cc2)c1

AC50 [8]: 5.09 µM (active) | IC50 [10]: 62.3 µM (active)
SMILES: C/C(CC(=O)Nc1ccc(N(C)C)cc1)=N\NC(=O)c1ccc([N+](=O)[O-])cc1

IC50 [6]: 6.14 µM (active)
SMILES: CC(C)Cn1c(N)c(C(=O)COC(=O)c2cccc(Cl)c2)c(=O)n(C)c1=O
